Measured values from patent US5593989A, “Tetracyclic 1,4-oxazine compounds” (Adir et Compagnie, priority 1994, dated 1997).
Values belong to the compound of their own block, whether it stands above or below them.

How the values were obtained:
[1] = test system: cloned human D3 receptors vs D2 receptors; assay: D3 vs D2 binding selectivity, cloned human receptors
Protocol: (§1) in vitro: by the technique of binding to human and rat D2 and D3 receptors (expressed independently and in a stable manner in CHO cells);
(§2) The affinity of the compounds for human or rat D3 and D2 receptors (expressed independently and in a stable manner in CHO cells) was determined in membrane preparations using [^125 I]-iodosulpiride as radioligand (Sokoloff et al, op. cit.), raclopride (10 μM) determining the non-specific binding. The results are expressed as IC50. The selectivity is expressed by the ratio of IC50 D2 to IC50 D3.

[2] = Forced-swimming test (Porsolt); type: in vivo; conditions: for Period of immobility: means ± sem
Protocol: The procedure has been described in detail by Porsolt et al. (1978).
The experiment was carried out over two days, the test taking place on the second day. On the first day, the animal was placed for 15 minutes in a glass cylinder (30 cm×.O slashed.20 cm) filled with water, the temperature of which is maintained at 25° C. On the second day, the day of the test, the product or the solvent was administered to the animal by the subcutaneous route 30 minutes before the beginning of the test, At T0, the animal was placed in a cylinder filled with water for the 5 minutes the test lasted. The total period (expressed in seconds) of immobility of the animal was measured.
The inhibitory dose (95% confidence limit) for reducing immobility time by 50% was calculated according to Finney's method (Statistical Method in Biological Assays, 2nd ed., Hafner Publishing, New York, 1964).

[3] = test system: cloned rat D3 receptors vs D2 receptors; assay: D3 vs D2 binding selectivity, cloned rat receptors
Protocol: as §1, §2

[4] = test system: D3 receptor; assay: Hypothermia induced in rats by 7-OH-DPAT; type: in vivo, male Wistar rats; conditions: for ΔT °C.: means ± sem
Protocol: in vivo: by the capacity of the molecules to modulate hypothermia induced in rats by the D3 dopaminergic agonist, 7-OH-DPAT, control of the body temperature being dependent upon the post-synaptic D3 receptor (M. J. Millan, op. cit.).
The tests were carried out on male Wistar rats weighing 200-250 g, placed in individual cages with free access to food and water. The products were dissolved in distilled water to which several drops of lactic acid are added. The injections were effected in a volume of 1.0 ml/kg by the subcutaneous route. The doses are expressed in base. The rectal temperature of the rats was recorded using a digital thermal probe (Millan et al., J.P.E.T., 1993, 264, p. 1364-1376). The rats were injected with the compound or vehicle, then put back in their cages for 30 minutes. The rats were then given an injection of 7-OH-DPAT (0.16 mg/kg) and put back in their cages. Thirty minutes later, the rectal temperature was measured and the difference to basal values (ΔT° C.) was determined. The inhibitory dose (95% confidence limit) for reducing the effect of 7-OH-DPAT by 50% was calculated according to Finney's method (Statistical Method in Biological Assays, 2nd ed., Hafner Publishing, New York, 1964).

selectivity for D3 receptors compared with D2 receptors, ratio of IC50 D2 to IC50 D3 [1]: 45
selectivity for D3 receptors compared with D2 receptors, ratio of IC50 D2 to IC50 D3 [3]: 44
Structure (SMILES): CCCN1CCO[C@@H]2c3cc4c(cc3CC[C@H]21)CCO4 (relative stereo) [Example 1, trans-3,4,4a,5,6,8,9,11b-octahydrofuro[2,3-b]1,4-oxazino[3,2-h]4-propyl-2H-naphthalene]
Period of immobility ([2]; dose 0.63 mg/kg s.c.): 200.8 ± 17.4 s
Period of immobility ([2]; dose 1.25 mg/kg s.c.): 107.1 ± 39.7 s
Period of immobility ([2]; dose 2.5 mg/kg s.c., * p < 0.05): 63.1 ± 12.4 s
Period of immobility ([2]; dose 10.0 mg/kg s.c., * p < 0.05): 28.2 ± 18.1 s
ED50 ([2]; sc, 95% confidence limit in brackets, read-out: inhibitory dose (ID50) for reducing immobility time by 50%): 1.8 mg/kg
inhibitory dose (ID50) for reducing the effect of 7-OH-DPAT by 50% ([4]; 95% confidence limit in brackets, rats): 1.6 (0.7-3.7) mg/kg s.c.
ΔT °C. ([4]; Ex 1 0.16 mg/kg s.c., then 7-OH-DPAT 0.16 mg/kg): -1.8 ± 0.2 °C
ΔT °C. ([4]; Ex 1 0.63 mg/kg s.c., then 7-OH-DPAT 0.16 mg/kg): -1.3 ± 0.2 °C
ΔT °C. ([4]; Ex 1 2.5 mg/kg s.c., then 7-OH-DPAT 0.16 mg/kg, * p < 0.05 versus vehicle/7-OH-DPAT): +0.2 ± 0.2 °C
ΔT °C. ([4]; Ex 1 10.0 mg/kg s.c., then 7-OH-DPAT 0.16 mg/kg, * p < 0.05 versus vehicle/7-OH-DPAT): -0.1 ± 0.2 °C

Structure (SMILES): CCCN(CCC)[C@@H]1CCc2c(OC)cccc2[C@@H]1C [(+)UH 232]
selectivity for D3 receptors compared with D2 receptors, ratio of IC50 D2 to IC50 D3 [1]: 4.8

Structure (SMILES): CCCN[C@@H]1CCc2c(OC)cccc2[C@@H]1C [AJ 76]
selectivity for D3 receptors compared with D2 receptors, ratio of IC50 D2 to IC50 D3 [1]: 2.2

Structure (SMILES): CCCN(CCC)C1CCc2ccc(O)cc2C1 (stereo not shown) [Example 7-OH-DPAT, reference compound]
selectivity for D3 receptors compared with D2 receptors, ratio of IC50 D2 to IC50 D3 [3]: 53
ΔT °C. ([4]; injection 1 vehicle, injection 2 7-OH-DPAT 0.16 mg/kg s.c.): -1.4 ± 0.1 °C
